In ChEMBL document CHEMBL1147994 (Bioorg Med Chem Lett, 2007):

Tests used:
Dipeptidyl peptidase 8 = Dipeptidyl peptidase 8 (Homo sapiens, UniProt Q6V1X1); test: Inhibition of DPP8
Dipeptidyl peptidase 2 = Dipeptidyl peptidase 2 (Homo sapiens, UniProt Q9UHL4); test: Inhibition of QPP
Dipeptidyl peptidase 9 = Dipeptidyl peptidase 9 (Homo sapiens, UniProt Q86TI2); test: Inhibition of DPP9
Dipeptidyl peptidase 9, sequence (Q86TI2 whole entry): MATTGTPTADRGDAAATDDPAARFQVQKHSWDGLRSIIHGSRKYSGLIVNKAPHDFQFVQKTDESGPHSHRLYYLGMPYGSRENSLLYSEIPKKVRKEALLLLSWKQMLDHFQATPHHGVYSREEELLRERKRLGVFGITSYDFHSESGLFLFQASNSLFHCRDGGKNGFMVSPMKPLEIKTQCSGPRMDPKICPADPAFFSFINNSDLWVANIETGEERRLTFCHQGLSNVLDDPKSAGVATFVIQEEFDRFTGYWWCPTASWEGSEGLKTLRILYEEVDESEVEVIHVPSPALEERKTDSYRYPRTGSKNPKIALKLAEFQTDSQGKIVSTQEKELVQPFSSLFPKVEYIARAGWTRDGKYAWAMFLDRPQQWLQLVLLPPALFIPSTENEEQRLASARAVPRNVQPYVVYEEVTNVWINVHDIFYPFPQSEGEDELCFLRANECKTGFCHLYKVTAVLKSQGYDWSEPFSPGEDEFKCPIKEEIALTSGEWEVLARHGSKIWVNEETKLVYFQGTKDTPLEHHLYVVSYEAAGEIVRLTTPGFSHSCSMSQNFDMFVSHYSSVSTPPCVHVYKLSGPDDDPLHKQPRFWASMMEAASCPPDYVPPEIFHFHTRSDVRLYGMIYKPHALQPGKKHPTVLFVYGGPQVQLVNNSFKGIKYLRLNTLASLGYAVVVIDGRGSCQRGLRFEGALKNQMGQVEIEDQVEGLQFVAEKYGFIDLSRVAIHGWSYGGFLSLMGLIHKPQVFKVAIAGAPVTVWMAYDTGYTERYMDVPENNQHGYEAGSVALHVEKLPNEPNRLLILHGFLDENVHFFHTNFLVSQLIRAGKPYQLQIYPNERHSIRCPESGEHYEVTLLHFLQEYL

Dipeptidyl peptidase 8, sequence (Q6V1X1 whole entry): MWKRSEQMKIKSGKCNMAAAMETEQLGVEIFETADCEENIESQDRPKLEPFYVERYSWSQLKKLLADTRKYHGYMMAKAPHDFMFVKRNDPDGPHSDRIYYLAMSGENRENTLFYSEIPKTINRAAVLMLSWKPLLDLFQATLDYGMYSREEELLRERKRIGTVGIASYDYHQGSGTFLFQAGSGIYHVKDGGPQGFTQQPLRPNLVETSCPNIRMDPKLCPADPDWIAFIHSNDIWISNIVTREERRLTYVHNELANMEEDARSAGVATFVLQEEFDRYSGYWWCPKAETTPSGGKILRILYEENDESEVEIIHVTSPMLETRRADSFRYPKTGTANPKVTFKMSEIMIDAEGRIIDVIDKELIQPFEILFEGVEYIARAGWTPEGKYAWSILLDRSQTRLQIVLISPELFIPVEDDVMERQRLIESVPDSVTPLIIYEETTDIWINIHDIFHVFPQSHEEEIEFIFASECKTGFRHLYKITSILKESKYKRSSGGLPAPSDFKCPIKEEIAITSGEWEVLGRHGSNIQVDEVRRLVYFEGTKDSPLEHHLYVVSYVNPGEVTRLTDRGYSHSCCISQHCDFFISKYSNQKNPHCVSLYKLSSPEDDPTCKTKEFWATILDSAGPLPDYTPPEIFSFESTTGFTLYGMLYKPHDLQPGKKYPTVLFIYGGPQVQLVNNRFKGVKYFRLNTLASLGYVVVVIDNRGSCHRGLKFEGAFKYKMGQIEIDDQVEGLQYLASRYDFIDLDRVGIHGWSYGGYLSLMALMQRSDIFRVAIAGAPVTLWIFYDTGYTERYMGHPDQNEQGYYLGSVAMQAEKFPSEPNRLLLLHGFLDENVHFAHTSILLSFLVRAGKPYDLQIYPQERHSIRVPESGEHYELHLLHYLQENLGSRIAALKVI

IC50 (Dipeptidyl peptidase 8): > 100 µM
IC50 (Dipeptidyl peptidase 2): > 100 µM
IC50 (Dipeptidyl peptidase 9): > 100 µM
SMILES: N[C@H]1C[C@H](N2CCn3c(nnc3C(F)(F)F)C2)CC[C@@H]1c1cc(F)c(F)cc1F
